Results from publication PMC11509018, “Evaluation of the Role of Tanshinone I in an In Vitro System of Charcot-Marie-Tooth Disease Type 2N” (International Journal of Molecular Sciences, 2024).

Experiments:
[1] = target: T1, AlaRS G102R binding to GST-Nrp1 b1 (Homo sapiens, UniProt P49588, G102R); test: GST pull down assay; conditions: 20 µM Tanshinone I, ImageJ, average of three repeats
T1 construct: made in house; host or cells: E. coli BL21 (DE3), pET-21a for AlaRS
T1 sequence (P49588 1-968 G102R): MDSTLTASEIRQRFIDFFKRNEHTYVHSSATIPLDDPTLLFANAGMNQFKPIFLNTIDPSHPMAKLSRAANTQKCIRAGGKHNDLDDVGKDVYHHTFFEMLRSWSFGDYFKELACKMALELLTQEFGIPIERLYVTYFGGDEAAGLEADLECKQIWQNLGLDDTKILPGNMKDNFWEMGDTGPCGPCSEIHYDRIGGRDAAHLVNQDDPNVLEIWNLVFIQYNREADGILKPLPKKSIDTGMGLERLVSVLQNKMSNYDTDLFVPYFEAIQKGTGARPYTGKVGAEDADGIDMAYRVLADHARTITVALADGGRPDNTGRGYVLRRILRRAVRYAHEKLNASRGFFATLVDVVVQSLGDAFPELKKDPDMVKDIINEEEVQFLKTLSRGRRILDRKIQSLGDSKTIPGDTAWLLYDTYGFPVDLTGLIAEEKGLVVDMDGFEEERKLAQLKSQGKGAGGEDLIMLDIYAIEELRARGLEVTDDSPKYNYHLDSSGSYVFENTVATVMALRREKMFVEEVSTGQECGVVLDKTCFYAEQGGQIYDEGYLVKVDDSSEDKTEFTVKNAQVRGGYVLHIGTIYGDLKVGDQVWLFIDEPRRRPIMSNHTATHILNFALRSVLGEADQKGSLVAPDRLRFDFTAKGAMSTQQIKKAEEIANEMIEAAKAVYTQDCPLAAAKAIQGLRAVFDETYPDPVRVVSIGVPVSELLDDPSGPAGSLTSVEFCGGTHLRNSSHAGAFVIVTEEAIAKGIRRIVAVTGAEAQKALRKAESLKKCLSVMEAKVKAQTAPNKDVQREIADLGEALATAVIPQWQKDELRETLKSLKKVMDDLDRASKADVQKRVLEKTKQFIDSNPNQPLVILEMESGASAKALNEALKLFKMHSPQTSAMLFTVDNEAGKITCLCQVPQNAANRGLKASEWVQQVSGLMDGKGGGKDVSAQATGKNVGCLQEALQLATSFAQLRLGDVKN

293T cells = test: Cell viability (CCK-8 assay); assay type: cell-based; conditions: up to 40 μM, 24 h
Method: (§1) Further validation of the safety and efficacy of Tanshinone I involved conducting cytotoxicity assays to ensure minimal toxicity to normal cells, while effectively inhibiting the abnormal interaction between AlaRS CMT mutants and Nrp1. We used the CCK-8 assay to evaluate the effects of Tanshinone I on 293T and NSC34 cells. Cells were treated with different concentrations of Tanshinone I for 24 h, followed by incubation with CCK-8 reagent. […] The Cell Counting Kit-8 (CCK-8) assay was performed to assess cell viability following the manufacturer’s instructions. Briefly, cells were seeded at an initial density of 5 × 10^3 cells per well in a 96-well plate and incubated overnight. The following day, the cells were treated with various concentrations of Tanshinone I. After 24 h of treatment, 10 μL of CCK-8 reagent (GlpBio, Montclair, CA, USA) was added to each well, and the plate was incubated at 37 °C with 5% CO2 for 1.5 h. Absorbance was then measured at 450 nm using a multimode microplate reader. The experiment was repeated three times.

NSC34 cells = test: Cell viability (CCK-8 assay); assay type: cell-based; conditions: up to 40 μM, 24 h
Method: as §1

Cc1coc2c1C(=O)C(=O)c1c-2ccc2c(C)cccc12 [Tanshinone I]
Mean density band (G102R), relative quantification of AlaRS mutant pulled down [1]: 0.76
Cell viability (293T cells): did not significantly affect the viability
Cell viability (NSC34 cells): did not significantly affect the viability
